The values that follow are results of earlier work, collected in patent publication US20090117146A1 (priority 2005, published 2009).

The data set deals with adenyl cyclase. As to conditions: follicles of scalp hair.

Take `C[C@]12CCC(=O)C[C@@H]1CC[C@@H]1[C@@H]2CC[C@]2(C)[C@@H](O)CC[C@@H]12` [dihydrotestosterone]: the “effect on adenyl cyclase activity” value was “inhibits adenyl cyclase activity”.

With `C[C@]12CC[C@H]3[C@@H](CCC4=CC(=O)CC[C@@]43C)[C@@H]1CC[C@@H]2O` [testosterone], the “effect on adenyl cyclase activity” value is on record as “does not”.
